Results: patent publication US20160264593A1 (priority 2013, published 2016)
“And” between values parts separate entries of the source, which are not always exact repeats. Equal values may be shown once. “Also recorded” adds a separate entry of the source. Read-outs that look alike come from different tables or passages of the source.

Legend:
[1] = system: PP2A; test: PP2A activity in mouse brains after IP dosing (PP2A immunoprecipitation phosphatase assay, malachite green); type: in vivo, Balb/c mice; conditions: for Average Conc. (group of 3 mice) / Average Relative Activity (group, vehicle = 100) / Conc. (phosphate, single reading, per mouse) / Mean Conc. (per mouse) / Mean Conc. less IgG blank (per mouse) / Relative Conc. (per mouse, to vehicle) / Relative PP2A Activity (per mouse, vehicle = 100): brain; for activity of PP2A in brains (statement): high dose IP
Method in brief: (§1)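 Female Balb/c mice (6-8 weeks) were dosed IP with compound in 4% sodium bicarbonate; brain and liver were harvested 3 h and 6 h post-dose. PP2A was immunoprecipitated from 240 μg lysate with anti-PP2A, using normal IgG as control. Phosphatase activity on a threonine phosphopeptide was read by malachite green absorbance against a phosphate standard curve.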

[2] = system: breast cancer (2LMP) cells; test: WST cell viability assay, 2LMP
Excerpt: IC50 values were obtained for cytotoxicity against breast cancer (2LMP), glioblastoma (U-87) and lung cancer (A549) cells (See Table 5 and FIGS. 3-5).

[3] = system: PP2A; test: PP2A activity in mouse livers after IP dosing (PP2A immunoprecipitation phosphatase assay, malachite green); type: in vivo, Balb/c mice; conditions: for Average Conc. (group of 3 mice) / Average Relative Activity (group, vehicle = 100) / Conc. (phosphate, single reading, per mouse) / Mean Conc. (per mouse) / Mean Conc. less IgG blank (per mouse) / Relative Conc. (per mouse, to vehicle) / Relative PP2A Activity (per mouse, vehicle = 100): liver
Method in brief: as §1

[4] = system: glioblastoma (U-87) cells; test: WST cell viability assay, U-87 MG; type: cell-based; conditions: Homo sapiens, U-87 MG
[5] = system: lung cancer (A549) cells; test: WST cell viability assay, A549; type: cell-based; conditions: Homo sapiens, A549, read-out: IC50 A549
[6] = high dose IP (mpk: 100 1.5, 113 2.2, 151 1.6, 153 1.7, 157 2.0), 3 h
[7] = high dose IP (mpk: 100 1.5, 113 2.2, 151 1.6, 153 1.7, 157 2.0), 6 h
[8] = low dose IP (mpk: 100 0.75, 113 1.1, 151 0.8, 153 0.85, 157 1.0), 3 h
[9] = low dose IP (mpk: 100 0.75, 113 1.1, 151 0.8, 153 0.85, 157 1.0), 6 h
[10] = read-out: IC50 2LMP, WST-20131015 (first value of the cell)
[11] = read-out: IC50 2LMP, WST-20131025 (second value of the cell)
[12] = high dose IP (mpk: 100 1.5, 113 2.2, 151 1.6, 157 2.0), 3 h
[13] = high dose IP (mpk: 100 1.5, 113 2.2, 151 1.6, 157 2.0), 6 h
[14] = read-out: IC50 U-87 MG, WST-20131017 (first value of the cell)
[15] = read-out: IC50 U-87 MG, WST-20131024 (second value of the cell)
[16] = IP, dose and time not specified

For `CN1CCN(C(=O)C2C3CCC(O3)C2C(=O)O)CC1` (centres unmarked) [Compound 100, 3-(4-methylpiperazine-1-carbonyl)-7-oxa-bicyclo[2,2,1]-heptane-2-carboxylic acid], the “Average Conc. (group of 3 mice)” value [1, 6] was 1176.58, the “Average Relative Activity (group, vehicle = 100)” value (shortened to “Average Relative Activity”) [1, 6] was 80.09 and the “Conc. (phosphate, single reading, per mouse)” value [1, 6] was 1090.16 and 1146.07 and 1273.56 and 1349.24 and 1116.43 and 1122.21. For the same molecule, the “Mean Conc. (per mouse)” value [1, 6] was 1118.11 and 1311.40 and 1119.32, the “Mean Conc. less IgG blank (per mouse)” value [1, 6] was 1111.75 and 1305.03 and 1112.95 and the “Relative Conc. (per mouse, to vehicle)” value [1, 6] was 0.77 (2×) and 0.90. The “Relative PP2A Activity (per mouse, vehicle = 100)” value [1, 6] was 75.68 and 88.84 and 75.76, the “Average Conc. (group of 3 mice)” value [1, 7] was 1430.23 and the “Average Relative Activity” value [1, 7] was 102.54. The “Conc. (phosphate, single reading, per mouse)” value [1, 7] was 1524.93 and 1576.74 and 1180.05 and 1223.91 and 1496.73 and 1617.23, the “Mean Conc. (per mouse)” value [1, 7] was 1550.84 and 1201.98 and 1556.98 and the “Mean Conc. less IgG blank (per mouse)” value [1, 7] was 1544.47 and 1195.62 and 1550.62. The “Relative Conc. (per mouse, to vehicle)” value [1, 7] was 1.12 (2×) and 0.87, the “Relative PP2A Activity (per mouse, vehicle = 100)” value [1, 7] was 110.73 and 85.72 and 111.17 and the “Average Conc. (group of 3 mice)” value [1, 8] was 1143.44. The “Average Relative Activity” value [1, 8] was 77.84, the “Conc. (phosphate, single reading, per mouse)” value [1, 8] was 1131.61 and 1148.72 and 982.91 and 1046.54 and 1270.67 and 1318.39 and the “Mean Conc. (per mouse)” value [1, 8] was 1140.17 and 1014.72 and 1294.53. The “Mean Conc. less IgG blank (per mouse)” value [1, 8] was 1133.80 and 1008.36 and 1288.16, the “Relative Conc. (per mouse, to vehicle)” value [1, 8] was 0.78 and 0.69 and 0.89 and the “Relative PP2A Activity (per mouse, vehicle = 100)” value [1, 8] was 77.18 and 68.64 and 87.69. For the same molecule, the “Average Conc. (group of 3 mice)” value [1, 9] was 1009.84, the “Average Relative Activity” value [1, 9] was 72.40 and the “Conc. (phosphate, single reading, per mouse)” value [1, 9] was 996.89 and 1024.12 and 978.81 and 1073.53 and 990.38 and 1033.52. The “Mean Conc. (per mouse)” value [1, 9] was 1010.51 and 1026.17 and 1011.95, the “Mean Conc. less IgG blank (per mouse)” value [1, 9] was 1004.14 and 1019.81 and 1005.59 and the “Relative Conc. (per mouse, to vehicle)” value [1, 9] was 0.73 (2×) and 0.74. The “Relative PP2A Activity (per mouse, vehicle = 100)” value [1, 9] was 71.99 and 73.11 and 72.09, the IC50 [2, 10] was 3.41 µM and the IC50 [2, 11] was 6.98 µM. The “Average Conc. (group of 3 mice)” value [3, 12] was 290.15, the “Average Relative Activity” value [3, 12] was 73.9 and the “Conc. (phosphate, single reading, per mouse)” value [3, 12] was 340.38 and 353.99 and 282.08 and 493.05 and 279.92 and 293.74. The “Mean Conc. (per mouse)” value [3, 12] was 347.18 and 387.56 and 286.83, the “Mean Conc. less IgG blank (per mouse)” value [3, 12] was 296.81 and 337.19 and 236.46 and the “Relative Conc. (per mouse, to vehicle)” value [3, 12] was 0.76 and 0.86 and 0.6. For the same molecule, the “Relative PP2A Activity (per mouse, vehicle = 100)” value [3, 12] was 75.64 and 85.93 and 60.26, the “Average Conc. (group of 3 mice)” value [3, 13] was 197.91 and the “Average Relative Activity” value [3, 13] was 50.5. For the same molecule, the “Conc. (phosphate, single reading, per mouse)” value [3, 13] was 154.46 and 167.2 and 290.5 and 323.97 and 262.21 and 291.36, the “Mean Conc. (per mouse)” value [3, 13] was 160.83 and 307.23 and 276.79 and the “Mean Conc. less IgG blank (per mouse)” value [3, 13] was 110.45 and 256.86 and 226.41. The “Relative Conc. (per mouse, to vehicle)” value [3, 13] was 0.28 and 0.66 and 0.58, the “Relative PP2A Activity (per mouse, vehicle = 100)” value [3, 13] was 28.21 and 65.59 and 57.82 and the “Average Conc. (group of 3 mice)” value [3, 8] was 289.29. The “Average Relative Activity” value [3, 8] was 73.7, the “Conc. (phosphate, single reading, per mouse)” value [3, 8] was 292.01 and 308.85 and 318.57 and 329.58 and 359.6 and 429.35 and the “Mean Conc. (per mouse)” value [3, 8] was 300.43 and 324.08 and 394.47. For the same molecule, the “Mean Conc. less IgG blank (per mouse)” value [3, 8] was 250.06 and 273.7 and 344.1, the “Relative Conc. (per mouse, to vehicle)” value [3, 8] was 0.64 and 0.7 and 0.88 and the “Relative PP2A Activity (per mouse, vehicle = 100)” value [3, 8] was 63.73 and 69.75 and 87.69. The “Average Conc. (group of 3 mice)” value [3, 9] was 316.5, the “Average Relative Activity” value [3, 9] was 80.8 and the “Conc. (phosphate, single reading, per mouse)” value [3, 9] was 391.13 and 414.88 and 358.3 and 359.17 and 328.94 and 348.8. For the same molecule, the “Mean Conc. (per mouse)” value [3, 9] was 403 and 358.74 and 338.87, the “Mean Conc. less IgG blank (per mouse)” value [3, 9] was 352.63 and 308.36 and 288.5 and the “Relative Conc. (per mouse, to vehicle)” value [3, 9] was 0.9 and 0.79 and 0.74. For the same molecule, the “Relative PP2A Activity (per mouse, vehicle = 100)” value [3, 9] was 90.05 and 78.74 and 73.67, the IC50 [4, 14] was 19.9 µM and the IC50 [4, 15] was 25.2 µM. It also gave an IC50 [5] of 10.3 µM.
With `CCCOC(=O)C1C2CCC(O2)C1C(=O)N1CCN(C)CC1` (centres unmarked) [Compound 153, 3-(4-Methylpiperazine-1-carbonyl)-7-oxa-bicyclo[2,2,1]heptane-2-carboxylic acid propyl ester] the “PP2A activity in the brain of mice (statement)” value [1, 16] was “inhibited PP2A activity”, the “Average Conc. (group of 3 mice)” value [1, 6] was 1620.00 and the “Average Relative Activity” value [1, 6] was 65.73. For the same molecule, the “Conc. (phosphate, single reading, per mouse)” value [1, 6] was 2278.33 and 2174.47 and 1309.82 and 1252.91 and 1475.88 and 1456.77, the “Mean Conc. (per mouse)” value [1, 6] was 2226.40 and 1281.36 and 1466.33 and the “Mean Conc. less IgG blank (per mouse)” value [1, 6] was 2188.37 and 1243.34 and 1428.30. For the same molecule, the “Relative Conc. (per mouse, to vehicle)” value [1, 6] was 1.01 and 0.57 and 0.66, the “Relative PP2A Activity (per mouse, vehicle = 100)” value [1, 6] was 88.79 and 50.45 and 57.95 and the “Average Conc. (group of 3 mice)” value [1, 7] was 1696.22. For the same molecule, the “Average Relative Activity” value [1, 7] was 61.07, the “Conc. (phosphate, single reading, per mouse)” value [1, 7] was 1822.84 and 1778.73 and 1685.64 and 1802.51 and 1690.72 and 1625.07 and the “Mean Conc. (per mouse)” value [1, 7] was 1800.78 and 1744.07 and 1657.89. The “Mean Conc. less IgG blank (per mouse)” value [1, 7] was 1762.76 and 1706.05 and 1619.87, the “Relative Conc. (per mouse, to vehicle)” value [1, 7] was 0.72 and 0.70 and 0.66 and the “Relative PP2A Activity (per mouse, vehicle = 100)” value [1, 7] was 63.47 and 61.43 and 58.32. For the same molecule, the “activity of PP2A in brains (statement)” value ([1]; 3 h) was “more effectively than compound 100”, the “activity of PP2A in brains (statement)” value ([1]; 6 h) was “significantly inhibited; also recorded: more effectively than compound 100” and the “PP2A activity in brains as compared with vehicle” value ([1]; high doses IP, 6 h post treatment) was 61%. For the same molecule, the “Average Conc. (group of 3 mice)” value [1, 8] was 2159.78, the “Average Relative Activity” value [1, 8] was 87.63 and the “Conc. (phosphate, single reading, per mouse)” value [1, 8] was 2670.21 and 2571.02 and 1916.94 and 1817.15 and 2140.93 and 2070.60. The “Mean Conc. (per mouse)” value [1, 8] was 2620.61 and 1867.04 and 2105.77, the “Mean Conc. less IgG blank (per mouse)” value [1, 8] was 2582.58 and 1829.02 and 2067.74 and the “Relative Conc. (per mouse, to vehicle)” value [1, 8] was 1.19 and 0.84 and 0.95. For the same molecule, the “Relative PP2A Activity (per mouse, vehicle = 100)” value [1, 8] was 104.78 and 74.21 and 83.90, the “Average Conc. (group of 3 mice)” value [1, 9] was 2104.97 and the “Average Relative Activity” value [1, 9] was 75.79. The “Conc. (phosphate, single reading, per mouse)” value [1, 9] was 1969.99 and 2070.60 and 2070.20 and 2078.94 and 2387.89 and 2280.36, the “Mean Conc. (per mouse)” value [1, 9] was 2020.30 and 2074.57 and 2334.12 and the “Mean Conc. less IgG blank (per mouse)” value [1, 9] was 1982.27 and 2036.54 and 2296.10. For the same molecule, the “Relative Conc. (per mouse, to vehicle)” value [1, 9] was 0.81 and 0.83 and 0.94, the “Relative PP2A Activity (per mouse, vehicle = 100)” value [1, 9] was 71.37 and 73.33 and 82.67 and the “cytotoxicity against breast cancer cells (statement)” value ([2]; WST, 2LMP) was “cytotoxic”. For the same molecule, the IC50 [2, 10] was 69.1 µM, the IC50 [2, 11] was 62 µM and the “PP2A activity in the liver of mice (statement)” value [3, 16] was “inhibited PP2A activity”. For the same molecule, the “activity of PP2A in livers as compared with vehicle (statement)” value ([3]; high dose IP, 6 h post treatment) was “significantly inhibited”, the “Average Conc. (group of 3 mice)” value [3, 8] was 387.63 and the “Average Relative Activity” value [3, 8] was 92.3. The “Conc. (phosphate, single reading, per mouse)” value [3, 8] was 445.88 and 461.99 and 441.96 and 438.48 and 396.24 and 414.09, the “Mean Conc. (per mouse)” value [3, 8] was 453.94 and 440.22 and 405.17 and the “Mean Conc. less IgG blank (per mouse)” value [3, 8] was 408.46 and 394.74 and 359.69. The “Relative Conc. (per mouse, to vehicle)” value [3, 8] was 0.97 and 0.94 and 0.86, the “Relative PP2A Activity (per mouse, vehicle = 100)” value [3, 8] was 97.26 and 93.99 and 85.65 and the “Average Conc. (group of 3 mice)” value [3, 9] was 364.7. For the same molecule, the “Average Relative Activity” value [3, 9] was 82.05, the IC50 [4, 14] was over 100 µM and the IC50 [4, 15] was over 100 µM. The IC50 [5] was over 100 µM.
